We go through 2 compounds from article PMC6287766 (Molecular cancer therapeutics, 2017).

The test system of this assay is murine brainstem glioma (mBSG) cells. Kind of assay: Cell viability / proliferation IC50. The note with it: Mus musculus, read-out: IC50, cell viability. Type of assay: cell-based.

As for `COc1cccc2c1C(=O)c1c(O)c3c(c(O)c1C2=O)C[C@@](O)(C(=O)CO)C[C@@H]3O[C@H]1C[C@H](N)[C@H](O)[C@H](C)O1` [doxorubicin], the IC50 (usually the concentration that inhibits the measured activity by half) amounted to 710 ± 120 nM.

With `Cc1nc(Nc2ncc(C(=O)Nc3c(C)cccc3Cl)s2)cc(N2CCN(CCO)CC2)n1` [dasatinib], the IC50 was 19 ± 20 nM.
